Publication PMC8453635, “Piperidine Azasugars Bearing Lipophilic Chains: Stereoselective Synthesis and Biological Activity as Inhibitors of Glucocerebrosidase (GCase)” (The Journal of Organic Chemistry, 2021)

Experiments:
β-galactosidase = target: T1, β-galactosidase (Homo sapiens, UniProt P16278); assay: Human lysosomal glycosidase selectivity screening (leukocyte homogenate); assay type: biochemical; conditions: 1 mM, read-out: percentage of inhibition, β-Gal
T1 construct: from leukocytes isolated from healthy donors (controls); from tissue; host or cells: leukocytes from healthy donors, sonicated homogenate
T1 sequence (P16278 29-677): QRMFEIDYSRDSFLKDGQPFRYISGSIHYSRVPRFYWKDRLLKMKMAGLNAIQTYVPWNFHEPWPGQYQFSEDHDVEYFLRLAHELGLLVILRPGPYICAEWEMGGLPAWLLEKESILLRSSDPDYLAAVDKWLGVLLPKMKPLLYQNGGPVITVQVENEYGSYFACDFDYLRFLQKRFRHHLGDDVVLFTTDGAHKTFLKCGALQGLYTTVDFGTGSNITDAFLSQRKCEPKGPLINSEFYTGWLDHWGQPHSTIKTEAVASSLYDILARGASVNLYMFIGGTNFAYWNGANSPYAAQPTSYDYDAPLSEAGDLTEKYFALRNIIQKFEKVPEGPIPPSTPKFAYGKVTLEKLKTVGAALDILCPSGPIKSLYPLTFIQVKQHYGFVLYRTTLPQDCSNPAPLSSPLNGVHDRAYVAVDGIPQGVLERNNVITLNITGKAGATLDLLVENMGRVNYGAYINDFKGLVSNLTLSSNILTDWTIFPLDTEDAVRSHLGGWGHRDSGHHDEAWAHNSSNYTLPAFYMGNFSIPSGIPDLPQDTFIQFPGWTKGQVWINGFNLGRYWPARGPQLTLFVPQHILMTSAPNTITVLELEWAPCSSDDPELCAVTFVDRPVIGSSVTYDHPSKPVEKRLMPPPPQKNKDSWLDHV
Procedure: (§1) In order to avoid undesired inhibitory side effects of a potential new drug, it has to be selective for a given target. The selectivity of the newly synthesized compounds 14, 15, and 33·HCl toward GCase was then investigated, evaluating their inhibition at 1 mM concentration toward six other lysosomal glycosidases (namely, α-and β-mannosidases, α- and β-galactosidases, α-fucosidase, and α-glucosidase) in cell homogenates (leucocytes or lymphocytes) isolated from healthy donors. […] Indeed, only moderate inhibitory activity (ca. 50%) was found toward human β-galactosidase for both piperidines 14 and 15, while negligible inhibitory activity was detected in all other cases.
The effect of 1 mM concentration of 14, 15, and 33·HCl was assayed toward six lysosomal glycosidases other than GCase, namely, α-mannosidase, β-mannosidase, α-galactosidase, β-galactosidase, α-fucosidase from leukocytes isolated from healthy donors (controls) and α-glucosidase from lymphocytes isolated from healthy donors’ flesh blood (controls). […]
μL, Sigma –Aldrich) in acetate buffer (0.1M, pH 4.3) containing NaCl (0.1M) and sodium azide (0.02%) were incubated at 37 °C for 1 h. The reaction was stopped by addition o f sodium carbonate (200 μL; 0.5M, pH 10.7) containing Triton X -100 (0.0025 %), and the fluorescence 4 -methylumbelliferone released by β-galactosidase activity was measured in SpectraMax M2 microplate reader ( λex=365 nm, λem=435 nm; Molecular Devices). […]
α-Fucosidase activity was measured in a flat -bottomed 96 -well plate. […]
(§2) α-Glucosidase activity was measured in a flat –bottomed 96 well plate. […] The reaction was stopped by the addition of a solution of sodium carbonate (200 µL; 0.5M, pH 10.7) containing Triton X -100 (0.0025 %), and the fluorescence of 4 -methylumbelliferone released by α-glucosidase activity was measured in […]
(§3) Figure S 48. […] The corresponding calculated percentage of inhibition is indicated above each bar.

α-fucosidase = target: T2, α-fucosidase (Homo sapiens, UniProt P04066); assay: as above; assay type: biochemical; conditions: 1 mM, read-out: percentage of inhibition, α-Fuco
T2 construct: from leukocytes isolated from healthy donors (controls); from tissue; host or cells: leukocytes from healthy donors, sonicated homogenate
T2 sequence (P04066 32-466): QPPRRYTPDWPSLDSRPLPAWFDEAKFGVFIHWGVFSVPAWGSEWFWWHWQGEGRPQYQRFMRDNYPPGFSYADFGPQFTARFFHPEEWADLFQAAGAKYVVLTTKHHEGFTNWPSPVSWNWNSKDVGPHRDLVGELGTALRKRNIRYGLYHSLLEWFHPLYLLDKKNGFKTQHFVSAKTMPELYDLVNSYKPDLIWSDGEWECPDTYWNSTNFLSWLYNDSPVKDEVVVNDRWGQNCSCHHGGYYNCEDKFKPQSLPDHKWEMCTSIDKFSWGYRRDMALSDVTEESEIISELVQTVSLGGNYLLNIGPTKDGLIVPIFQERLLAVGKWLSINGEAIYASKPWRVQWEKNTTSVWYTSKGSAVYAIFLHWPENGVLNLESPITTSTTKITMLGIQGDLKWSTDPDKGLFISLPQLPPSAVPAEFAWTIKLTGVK
Procedure: as §1
The effect of 1 mM concentration of 14, 15, and 33·HCl was assayed toward six lysosomal glycosidases other than GCase, namely, α-mannosidase, β-mannosidase, α-galactosidase, β-galactosidase, α-fucosidase from leukocytes isolated from healthy donors (controls) and α-glucosidase from lymphocytes isolated from healthy donors’ flesh blood (controls). Isolated leukocytes or lymphocytes were disrupted by sonication, and a micro BCA protein assay kit (Sigma-Aldrich) was used to determine the total protein amount for the enzymatic assay, according to the manufacturer’s instructions (for more details, see the Supporting Information section). […]
α-Fucosidase activity was measured in a flat -bottomed 96 -well plate. […] The reaction was stopped by addition of sodium carbonate (200 μL; 0.5M, pH 10.7) containing Triton X -100 (0.0 025 %), and the fluorescence 4 -methylumbelliferone released by α- fucosidase activity was measured in SpectraMax M2 microplate reader ( λex=365 nm, λem=435 nm; Molecular Devices). […]
as §2, §3

Compound | inhibition at 1000 µM (β-galactosidase) [%] | inhibition at 1000 µM (α-fucosidase) [%]
CCCCCCCC[C@H]1[C@@H](O)[C@H](O)[C@H](O)CN1CCCCCCCC [compound 14, (2S,3R,4R,5R)-1,2-Dioctylpiperidine-3,4,5-triol] | 48 | 25
CCCCCCCC[C@@H]1[C@@H](O)[C@H](O)[C@H](O)CN1CCCCCCCC [compound 15, (2R,3R,4R,5R)-1,2-Dioctylpiperidine-3,4,5-triol] | 51 | 24
CCCCCCCC[C@@H]1[C@@H](O)[C@H](O)[C@H](O)CN1C(CCCCCCC)CCCCCCC.Cl [compound 33·HCl, (2R,3R,4R,5R)-2-Octyl-1-(pentadecan-8-yl)-piperidine-3,4,5-triol Hydrochloride] | 15 | 5
